In series [1] the target is T1, Calcitonin gene-related peptide type 1 receptor (Homo sapiens, UniProt O60894+Q16602). The experiment in a line: Displacement of [I125]CGRP from CGRP receptor in human SK-N-MC cell membrane after 2 hrs by gamma or scintillation counting. It counts as cell membranes.
The target of series [2] is T1, Calcitonin gene-related peptide type 1 receptor. The experiment in a line: Antagonist activity at CGRP receptor in human SK-N-MC cells assessed as inhibition of CGRP-stimulated cAMP production. It is filed as functional, cell-based. For orientation: Cyclic AMP is a second messenger, typically raised through Gs and lowered through Gi signalling.
For series [3], the system named is Liver microsomes. In words: Metabolic stability in rat liver microsomes. It counts as ADME, Microsome. (In general: Liver microsomes are vesicles of endoplasmic reticulum, rich in cytochrome P450 enzymes.)
The test system of series [4] is Liver microsomes. The experiment in a line: Metabolic stability in human liver microsomes. It counts as ADME, Microsome.
Series [5] in a line: Permeability across human Caco2 cells. The conditions noted are these: Caco-2, read-out: permeability. It is filed as ADME, cell-based. In general terms: Caco-2 cells form a polarised layer with tight junctions and transporters.

SMILES strings stand for the structures. A value given as a limit tells only on which side of the number the result lay.

T1 sequence (Q16602 whole entry, one chain of several): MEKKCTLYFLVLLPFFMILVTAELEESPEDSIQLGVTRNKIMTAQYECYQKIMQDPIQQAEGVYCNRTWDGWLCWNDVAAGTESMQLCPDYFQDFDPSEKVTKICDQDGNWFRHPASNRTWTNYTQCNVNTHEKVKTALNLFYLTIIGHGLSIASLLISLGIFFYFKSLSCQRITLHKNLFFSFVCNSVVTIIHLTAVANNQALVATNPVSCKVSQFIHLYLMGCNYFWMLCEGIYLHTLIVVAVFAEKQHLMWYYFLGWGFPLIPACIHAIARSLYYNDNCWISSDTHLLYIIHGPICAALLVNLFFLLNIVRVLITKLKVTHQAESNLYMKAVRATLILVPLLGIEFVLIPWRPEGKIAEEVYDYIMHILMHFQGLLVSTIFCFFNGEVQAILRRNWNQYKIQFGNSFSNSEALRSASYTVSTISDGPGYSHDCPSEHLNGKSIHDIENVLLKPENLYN

The IC50 is the point on the concentration scale where inhibition reaches its midpoint. As for `Cc1cc(CC(OC(=O)N2CCC(N3Cc4ccccc4NC3=O)CC2)c2cc(C(=O)O)ccn2)cc2cn[nH]c12` (configuration not stated), the values for the IC50 in series [1] and in series [2] were 30 nM and 28 nM, respectively. The Stability result with Liver microsomes [3] and in the series on Liver microsomes [4] was “Unstable” each time.

Take `COC(=O)c1ccnc(C(Cc2cc(C)c3[nH]ncc3c2)OC(=O)N2CCC(N3Cc4ccccc4NC3=O)CC2)c1` (configuration not stated): in series [1], the IC50 was 4.4 nM. Further, the Stability entry with Liver microsomes [3] and in the series with Liver microsomes [4] was “Unstable” each time.

Regarding `Cc1cc(CC(OC(=O)N2CCC(N3Cc4ccccc4NC3=O)CC2)c2cc(C#N)ccn2)cc2cn[nH]c12` (configuration not stated), in series [1], the IC50 amounted to 3 nM. Also, the Stability entry with Liver microsomes [3] and in the series on Liver microsomes [4] was “Unstable” each time.

On to `Cc1cc(CC(OC(=O)N2CCC(N3Cc4ccccc4NC3=O)CC2)c2cc(C(=O)N(C)C)ccn2)cc2cn[nH]c12` (configuration not stated), for which, in series [1], the IC50 turned out to be 0.33 nM. The Stability entry in the series with Liver microsomes [3] and in the series on Liver microsomes [4] was “Unstable” each time.

On to `Cc1cc(CC(OC(=O)N2CCC(N3Cc4ccccc4NC3=O)CC2)c2cc(-c3ccncc3)ccn2)cc2cn[nH]c12` (configuration not stated), for which the IC50 in series [1] is 0.27 nM. Also, the Stability result in the series with Liver microsomes [3] and with Liver microsomes [4] was “Unstable” each time.

Regarding `Cc1cc(CC(OC(=O)N2CCC(N3Cc4ccccc4NC3=O)CC2)c2cc(C(=O)N3CCCCC3)ccn2)cc2cn[nH]c12` (configuration not stated), the results for the 50% inhibitory concentration (IC50) in series [1] and in series [2] were 0.28 nM and 0.099 nM, respectively. Further, the Stability result in the series on Liver microsomes [3] and with Liver microsomes [4] was “Unstable” in each case.

Turning to `Cc1cc(CC(OC(=O)N2CCC(N3Cc4ccccc4NC3=O)CC2)c2cc(CN3CCCCC3)ccn2)cc2cn[nH]c12` (configuration not stated), the IC50 was 0.1 nM in series [1] and 0.02 nM in series [2]. Also, the Stability result in the series with Liver microsomes [3] and in the series on Liver microsomes [4] was “Unstable” each time.

As to `Cc1cc(CC(OC(=O)N2CCC(c3cc4ccccc4[nH]c3=O)CC2)c2ccccn2)cc2cn[nH]c12` (configuration not stated), the IC50 in series [1] stood at 12 nM. Further, the Stability result in the series with Liver microsomes [3] and in the series with Liver microsomes [4] was “Unstable” in each case.

As for `Cc1cc(CC(OC(=O)N2CCC(N3Cc4ccccc4NC3=O)CC2)c2ccccn2)cc2c(Br)n[nH]c12` (configuration not stated), the concentration for half-maximal inhibition (IC50) in series [1] was 0.33 nM.

Turning to `Cc1cc(CC(OC(=O)N2CCC(N3Cc4ccccc4NC3=O)CC2)c2ccccn2)cc2c(Cl)n[nH]c12` (configuration not stated), the IC50 in series [1] was found to be 0.39 nM.

Turning to `Cc1cc(CC(OC(=O)N2CCC(N3Cc4ccccc4NC3=O)CC2)c2ccccn2)cc2c(-c3ccccc3)n[nH]c12` (configuration not stated), in series [1], the IC50 came to 0.24 nM.

On to `Cc1cc(CC(OC(=O)N2CCC(N3Cc4ccccc4NC3=O)CC2)c2ccccn2)cc2c(C=O)n[nH]c12` (configuration not stated), for which the IC50 in series [1] amounted to 1.3 nM.

With `Cc1cc(CC(OC(=O)N2CCC(N3Cc4ccccc4NC3=O)CC2)c2ccccn2)cc2c(CN3CCCCC3)n[nH]c12` (configuration not stated), in series [1], the IC50 turned out to be 6.6 nM.

On to `Cc1cc(CC(OC(=O)N2CCC(N3Cc4ccccc4NC3=O)CC2)c2ccccn2)cc2c(CN3CCOCC3)n[nH]c12` (configuration not stated), for which the IC50 in series [1] was determined as 1.9 nM.

Regarding `Cc1cc(CC(OC(=O)N2CCC(N3Cc4ccccc4NC3=O)CC2)c2ccccn2)cc2c(CN3CCCC3)n[nH]c12` (configuration not stated), the IC50 in series [1] was 6.8 nM.

With `Cc1cc(C[C@@H](OC(=O)N2CCC(c3cc4ccccc4[nH]c3=O)CC2)c2cc(C(=O)N(C)C)cc(Cl)n2)cc2cn[nH]c12`, the IC50 was 0.077 nM in series [1] and 0.064 nM in series [2].

Regarding `Cc1cc(CC(OC(=O)N2CCC(N3CCc4ccccc4NC3=O)CC2)c2cc(C(=O)N(C)C)cc(Cl)n2)cc2cn[nH]c12` (configuration not stated), in series [1], the IC50 is 0.093 nM. Further, in series [5], the Papp was under 1.5 ×10⁻⁶ cm/s.

`Cc1cccnc1C(CC(=O)N1CCC(N2Cc3ccccc3NC2=O)CC1)Cc1cc(C)c2[nH]ncc2c1` (configuration not stated): the IC50 came to 4.4 nM in series [1] and 8.2 nM in series [2].

Take `Cc1cc(CC(CC(=O)N2CCC(N3Cc4ccccc4NC3=O)CC2)c2ccc(CO)cn2)cc2cn[nH]c12` (configuration not stated): the IC50 amounted to 7.9 nM in series [1] and 6 nM in series [2].

Consider `Cc1cc(CC(CC(=O)N2CCC(N3Cc4ccccc4NC3=O)CC2)c2ccc(C=O)cn2)cc2cn[nH]c12` (configuration not stated), for which the values for the IC50 in series [1] and in series [2] were 1.1 nM and 0.94 nM, respectively.

Turning to `Cc1cc(CC(CC(=O)N2CCC(N3Cc4ccccc4NC3=O)CC2)c2ccc(CN3CCCCC3)cn2)cc2cn[nH]c12` (configuration not stated), the IC50 in series [1] was determined as 1.8 nM; in series [2], 1.3 nM. The Papp in series [5] was under 1.5 ×10⁻⁶ cm/s.

Regarding `Cc1cc(CC(CC(=O)N2CCC(c3cc4ccccc4[nH]c3=O)CC2)c2ccccn2)cc2cn[nH]c12` (configuration not stated), the IC50 is 24 nM in series [1] and 30 nM in series [2]. In series [5], the Papp was 3.4 ×10⁻⁶ cm/s.

For the compound `Cc1cc(CC(NC(=O)N2CCC(N3Cc4ccccc4NC3=O)CC2)c2ccccn2)cc2cn[nH]c12` (configuration not stated), the IC50 was 3.1 nM in series [1] and 4.1 nM in series [2].

Regarding `Cc1cc(CC(OC(=O)N2CCC(N3Cc4ccccc4NC3=O)CC2)c2ccccn2)cc2cn[nH]c12` (configuration not stated), the IC50 came out at 1.5 nM in series [1] and 1.9 nM in series [2]. The Stability result with Liver microsomes [3] and with Liver microsomes [4] was “Unstable” each time.

Consider `Cc1cc(CC(NC(=O)N2CCC(N3Cc4ccccc4NC3=O)CC2)c2cccc(Br)n2)cc2cn[nH]c12` (configuration not stated), for which the IC50 worked out at 0.49 nM in series [1] and 0.82 nM in series [2].

Take `Cc1cc(CC(OC(=O)N2CCC(N3Cc4ccccc4NC3=O)CC2)c2cccc(Br)n2)cc2cn[nH]c12` (configuration not stated): the IC50 in series [1] was 0.38 nM; in series [2], 0.46 nM. Further, the Stability entry in the series on Liver microsomes [3] and in the series with Liver microsomes [4] was “Unstable” in each case.

Regarding `Cc1cc(CC(NC(=O)N2CCC(N3Cc4ccccc4NC3=O)CC2)c2ccc3ccccc3n2)cc2cn[nH]c12` (configuration not stated), the figures for the IC50 in series [1] and in series [2] were 2 nM and 1.4 nM, respectively.

With `Cc1cc(CC(OC(=O)N2CCC(N3Cc4ccccc4NC3=O)CC2)c2ccc3ccccc3n2)cc2cn[nH]c12` (configuration not stated), the IC50 in series [1] was found to be 1.4 nM; in series [2] it was 4.8 nM. For the same compound, the Stability entry in the series on Liver microsomes [3] and with Liver microsomes [4] was “Unstable” each time.

With `Cc1cc(CC(NC(=O)N2CCC(N3Cc4ccccc4NC3=O)CC2)c2cc3ccccc3cn2)cc2cn[nH]c12` (configuration not stated), the IC50 in series [1] worked out at 0.82 nM; in series [2] it was 1 nM.

As for `Cc1cc(CC(OC(=O)N2CCC(N3Cc4ccccc4NC3=O)CC2)c2cc3ccccc3cn2)cc2cn[nH]c12` (configuration not stated), the IC50 was found to be 0.46 nM in series [1] and 0.63 nM in series [2]. Besides, the Stability result in the series with Liver microsomes [3] and in the series with Liver microsomes [4] was “Unstable” each time.

For the compound `Cc1cc(CC(NC(=O)N2CCC(N3Cc4ccccc4NC3=O)CC2)c2cccc(-c3ccccc3)n2)cc2cn[nH]c12` (configuration not stated), the figures for the IC50 in series [1] and in series [2] were 12 nM and 14 nM, respectively.

For the compound `Cc1cccc(C(Cc2cc(C)c3[nH]ncc3c2)NC(=O)N2CCC(N3Cc4ccccc4NC3=O)CC2)n1` (configuration not stated), the IC50 was 3.8 nM in series [1] and 3.4 nM in series [2].

For `Cc1cc(CC(OC(=O)N2CCC(N3Cc4ccccc4NC3=O)CC2)c2cc(CO)ccn2)cc2cn[nH]c12` (configuration not stated), the IC50 in series [1] was found to be 2 nM; in series [2] it was 2.1 nM. Also, the Stability result in the series on Liver microsomes [3] and in the series with Liver microsomes [4] was “Unstable” in each case.

On to `Cc1cc(CC(OC(=O)N2CCC(N3Cc4ccccc4NC3=O)CC2)c2cc(C=O)ccn2)cc2cn[nH]c12` (configuration not stated), for which the IC50 in series [1] is 0.21 nM; in series [2], 0.28 nM. The Stability result in the series with Liver microsomes [3] and in the series on Liver microsomes [4] was “Unstable” each time.

The term Ki denotes a measure of affinity in units of concentration, obtained from inhibition or displacement. For the compound `Cc1cc(C[C@@H](NC(=O)N2CCC(N3Cc4cccc(F)c4NC3=O)CC2)C(=O)N2CCC(N3CCCCC3)CC2)cc2cn[nH]c12`, the Ki in series [1] stood at 0.013 nM.

The values are drawn from ChEMBL document CHEMBL2021833, “Calcitonin gene-related peptide (CGRP) receptor antagonists: pyridine as a replacement for a core amide group” (Bioorg Med Chem Lett, 2012).
